Source: US20240293421A1, “CRYSTALLINE COMPOSITION OF TILDACERFONT AND METHODS OF USE AND PREPARATION THEREOF” (Spruce Biosciences, Inc., priority 2021, published 2024)

What was measured:
[1] = Stability under long-term storage conditions (25±2° C./60±5% RH); assay type: physicochemical; parameters: key to Related Substances by HPLC: a. C07102401-F-Imp1 / Related Substances by HPLC: b. C07102401-F-Imp2 / Related Substances by HPLC: c. Any unspecified impurity / Related Substances by HPLC: d. Total impurities: BDRL: below disregard limit; details: for Description / Identification by FT-IR / Identification by XRPD / Related Substances by HPLC: a. C07102401-F-Imp1 / Related Substances by HPLC: b. C07102401-F-Imp2 / Related Substances by HPLC: c. Any unspecified impurity / Related Substances by HPLC: d. Total impurities / Water Content by KF / Assay of Compound 1 by HPLC: long-term storage 25±2° C./60±5% RH; for Assay of Compound 1 by HPLC: on anhydrous basis and solvent free basis
Excerpt: (§1) To determine the stability of the crystalline compositions prepared comprising the methods described herein, crystalline compositions comprising Compound 1 and oxalic acid were formulated. Samples of the crystalline composition comprising Compound 1-oxalic acid co-crystal were packed in a transparent low-density polyethylene (LDPE) bag, and closed by twisting the bag and tying it with a strip seal. The transparent LDPE bag was then placed in a black LDPE bag that was twisted and tied with a strip seal. The bags were then placed in a high-density polyethylene container. The samples were then subjected to accelerated aging conditions (40±2° C./75±5% relative humidity (RH)) or long-term storage conditions (25±2° C./60±5% RH). Sample stability measurements in each condition were measured at baseline (before exposure to accelerated aging conditions or long-term storage conditions), and one month, two months, and three months after exposure to said conditions. Sample stability measurements included a description of the sample's physical appearance (e.g., color and form), identification by Fourier-transform infrared spectroscopy (FT-IR), identification by X-ray powder diffraction (XRPD), water content (measured by Karl Fischer (KF) on a % weight/weight basis), identification of related substances (e.g., impurities), and high-performance liquid chromatography ((HPLC) measured on a % weight/weight on an anhydrous basis and solvent free basis). Samples of the crystalline composition comprising Compound 1-oxalic acid co-crystal prepared in Example 3 are subjected to accelerated aging conditions (40±2° C./75±5% relative humidity (RH)) or long-term storage conditions (25±2° C./60±5% RH). Sample stability measurements in each condition are measured at baseline (before exposure to accelerated aging conditions or long-term storage conditions), and four months, five months, six months, seven months, eight months, nine months, ten months, eleven months, twelve months, fourteen months, sixteen months, and eighteen months after exposure to said conditions. Sample stability measurements include a description of the sample's physical appearance (e.g., color and form), identification by Fourier-transform infrared spectroscopy (FT-IR), identification by X-ray powder diffraction (XRPD), water content (measured by Karl Fischer (KF) on a % weight/weight basis), identification of related substances (e.g., impurities), and high-performance liquid chromatography ((HPLC) measured on a % weight/weight on an anhydrous basis and solvent free basis).

[2] = Stability under accelerated aging conditions (40±2° C./75±5% RH); assay type: physicochemical; parameters: key to Related Substances by HPLC: a. C07102401-F-Imp1 / Related Substances by HPLC: b. C07102401-F-Imp2 / Related Substances by HPLC: c. Any unspecified impurity / Related Substances by HPLC: d. Total impurities: BDRL: below disregard limit; details: for Description / Identification by FT-IR / Identification by XRPD / Related Substances by HPLC: a. C07102401-F-Imp1 / Related Substances by HPLC: b. C07102401-F-Imp2 / Related Substances by HPLC: c. Any unspecified impurity / Related Substances by HPLC: d. Total impurities / Water Content by KF / Assay of Compound 1 by HPLC: accelerated aging 40±2° C./75±5% RH; for Assay of Compound 1 by HPLC: on anhydrous basis and solvent free basis
Excerpt: as §1

SMILES: CCC(CC)c1cc(C)nc2c(-c3sc(N4CCOCC4)nc3Cl)c(C)nn12 [Compound 1-oxalic acid co-crystal]
- Description ([1]; 1 month): Light yellow
- Identification by FT-IR ([1]; 1 month): concordant
- Identification by XRPD ([1]; 1 month): is consistent
- Related Substances by HPLC: a. C07102401-F-Imp1 ([1]; 1 month): BDRL
- Related Substances by HPLC: b. C07102401-F-Imp2 ([1]; 1 month): BDRL
- Related Substances by HPLC: c. Any unspecified impurity ([1]; 1 month): BDRL
- Related Substances by HPLC: d. Total impurities ([1]; 1 month): BDRL
- Water Content by KF ([1]; 1 month): 0.10 % w/w
- Description ([1]; 2 months): Light yellow
- Identification by FT-IR ([1]; 2 months): concordant
- Identification by XRPD ([1]; 2 months): is consistent
- Related Substances by HPLC: a. C07102401-F-Imp1 ([1]; 2 months): BDRL
- Related Substances by HPLC: b. C07102401-F-Imp2 ([1]; 2 months): BDRL
- Related Substances by HPLC: c. Any unspecified impurity ([1]; 2 months): BDRL
- Related Substances by HPLC: d. Total impurities ([1]; 2 months): BDRL
- Water Content by KF ([1]; 2 months): 0.03 % w/w
- Description ([1]; 3 months): Light yellow
- Identification by FT-IR ([1]; 3 months): concordant
- Identification by XRPD ([1]; 3 months): is consistent
- Related Substances by HPLC: a. C07102401-F-Imp1 ([1]; 3 months): BDRL
- Related Substances by HPLC: b. C07102401-F-Imp2 ([1]; 3 months): BDRL
- Related Substances by HPLC: c. Any unspecified impurity ([1]; 3 months): BDRL
- Related Substances by HPLC: d. Total impurities ([1]; 3 months): BDRL
- Water Content by KF ([1]; 3 months): 0.05 % w/w
- Description ([1]; baseline): Light yellow
- Identification by FT-IR ([1]; baseline): concordant
- Identification by XRPD ([1]; baseline): is consistent
- Related Substances by HPLC: a. C07102401-F-Imp1 ([1]; baseline): BDRL
- Related Substances by HPLC: b. C07102401-F-Imp2 ([1]; baseline): BDRL
- Related Substances by HPLC: c. Any unspecified impurity ([1]; baseline): BDRL
- Related Substances by HPLC: d. Total impurities ([1]; baseline): BDRL
- Water Content by KF ([1]; baseline): 0.02 % w/w
- Assay of Compound 1 by HPLC ([1]; 1 month): 99.2 % w/w
- Assay of Compound 1 by HPLC ([1]; 2 months): 100.1 % w/w
- Assay of Compound 1 by HPLC ([1]; 3 months): 99.2 % w/w
- Assay of Compound 1 by HPLC ([1]; baseline): 99.9 % w/w
- Stability (overall conclusion) ([1]; up to 3 months at long-term storage conditions (25±2° C./60±5% RH)): stable
- Description ([2]; 1 month): Light yellow
- Identification by FT-IR ([2]; 1 month): concordant
- Identification by XRPD ([2]; 1 month): is consistent
- Related Substances by HPLC: a. C07102401-F-Imp1 ([2]; 1 month): BDRL
- Related Substances by HPLC: b. C07102401-F-Imp2 ([2]; 1 month): BDRL
- Related Substances by HPLC: c. Any unspecified impurity ([2]; 1 month): BDRL
- Related Substances by HPLC: d. Total impurities ([2]; 1 month): BDRL
- Water Content by KF ([2]; 1 month): 0.09 % w/w
- Description ([2]; 2 months): Light yellow
- Identification by FT-IR ([2]; 2 months): concordant
- Identification by XRPD ([2]; 2 months): is consistent
- Related Substances by HPLC: a. C07102401-F-Imp1 ([2]; 2 months): BDRL
- Related Substances by HPLC: b. C07102401-F-Imp2 ([2]; 2 months): BDRL
- Related Substances by HPLC: c. Any unspecified impurity ([2]; 2 months): BDRL
- Related Substances by HPLC: d. Total impurities ([2]; 2 months): BDRL
- Water Content by KF ([2]; 2 months): 0.02 % w/w
- Description ([2]; 3 months): Light yellow
- Identification by FT-IR ([2]; 3 months): concordant
- Identification by XRPD ([2]; 3 months): is consistent
- Related Substances by HPLC: a. C07102401-F-Imp1 ([2]; 3 months): BDRL
- Related Substances by HPLC: b. C07102401-F-Imp2 ([2]; 3 months): BDRL
- Related Substances by HPLC: c. Any unspecified impurity ([2]; 3 months): BDRL
- Related Substances by HPLC: d. Total impurities ([2]; 3 months): BDRL
- Water Content by KF ([2]; 3 months): 0.08 % w/w
- Description ([2]; baseline): Light yellow
- Identification by FT-IR ([2]; baseline): concordant
- Identification by XRPD ([2]; baseline): is consistent
- Related Substances by HPLC: a. C07102401-F-Imp1 ([2]; baseline): BDRL
- Related Substances by HPLC: b. C07102401-F-Imp2 ([2]; baseline): BDRL
- Related Substances by HPLC: c. Any unspecified impurity ([2]; baseline): BDRL
- Related Substances by HPLC: d. Total impurities ([2]; baseline): BDRL
- Water Content by KF ([2]; baseline): 0.02 % w/w
- Assay of Compound 1 by HPLC ([2]; 1 month): 99.2 % w/w
- Assay of Compound 1 by HPLC ([2]; 2 months): 100.1 % w/w
- Assay of Compound 1 by HPLC ([2]; 3 months): 99.2 % w/w
- Assay of Compound 1 by HPLC ([2]; baseline): 99.9 % w/w
- Stability (overall conclusion) ([2]; up to 3 months at accelerated aging conditions (40±2° C./75±5% RH)): stable
